Measurements reported in ChEMBL document CHEMBL4715909, “Identification of Plasmodium falciparum heat shock 90 inhibitors via molecular docking” (Bioorg Med Chem Lett, 2021).

Key:
[1] = test system: Plasmodium falciparum; experiment: Antimalarial activity against Plasmodium falciparum 3D7 assessed as reduction in parasitic growth; type: functional, organism-based
[2] = test system: BJ; experiment: Cytotoxicity against human BJ cells assessed as reduction in cell viability; type: cell-based
[3] = test system: BJ; experiment: Cytotoxicity against human BJ cells assessed as reduction in cell viability at 58 uM by relative to control; type: cell-based
[4] = test system: Plasmodium falciparum; experiment: Antimalarial activity against Plasmodium falciparum 3D7 assessed as reduction in parasitic growth at 16 uM relative to control; type: functional; set-up: scale not given: the % may be the effect or the level left

With `c1ccc(-c2nnn3c2nc(N2CCN(Cc4ccc5c(c4)OCO5)CC2)c2ccccc23)cc1` the EC50 [1] was 17 µM and the EC50 [2] was greater than 24 µM.
For `O=C(Cc1ccc2c(c1)OCO2)N1CCC(c2nc(=O)c3nnn(Cc4ccccc4F)c3[nH]2)CC1`, the EC50 [1] was 12.7 µM and the EC50 [2] was greater than 24 µM.
With `O=C(NCc1ccc2c(c1)OCO2)C1CCN(c2ncnc3onc(-c4cccc(F)c4)c23)CC1` the EC50 [1] was 0.98 µM and the EC50 [2] was greater than 24 µM.
`O=C(c1ccc2noc(-c3ccccc3)c2c1)N1CCC[C@H](c2nnc3ccccn23)C1` was tested, and the EC50 [1] was greater than 18 µM and the EC50 [2] was greater than 24 µM.
`Cc1c(C(=O)Nc2ccc3ccc(=O)oc3c2)nnn1-c1ccc2noc(-c3ccccc3)c2c1` gave an EC50 [1] of 15.7 µM and an EC50 [2] greater than 24 µM.
In the case of `CC(=O)[C@]1(O)Cc2c(O)c3c(c(O)c2[C@@H](O[C@H]2C[C@H](N)[C@H](O)[C@H](C)O2)C1)C(=O)c1ccccc1C3=O` [IDARUBICIN], the Activity [3] is reported as 100%.
With `Cc1cccc(-c2nc(C3CCN(C(=O)[C@H]4CC(=O)N(c5ccc(C)c(C)c5)C4)CC3)no2)c1` the EC50 [1] was 12.1 µM and the EC50 [2] was greater than 24 µM.
`O=C(c1cccc(Nc2nc3ccccc3n3nnnc23)c1)N1CCc2ccccc2C1` was tested, and the EC50 [1] was 3.44 µM and the EC50 [2] was greater than 24 µM.
`O=C1CN(C(=O)CN2C[C@H](C(=O)N3CCCCC3)Oc3ccccc32)c2ccccc2N1` showed an EC50 [1] greater than 18 µM and an EC50 [2] greater than 24 µM.
Work on `Cc1nnc(-c2nn(-c3ccc(C(=O)N4CCC[C@H](C)C4)cc3)c(-c3ccc(F)cc3)c2C)o1` yielded an EC50 [1] of 5.5 µM and an EC50 [2] greater than 24 µM.
`O=C(c1cccc(S(=O)(=O)N2CCc3ccccc32)c1)N1CCC(c2nnc3ccccn23)CC1` was tested, and the EC50 [1] was greater than 18 µM and the EC50 [2] was greater than 24 µM.
In the case of `O=C(CCn1c(=O)c2ccccc2n(Cc2ccccc2F)c1=O)N1CCc2ccccc2C1`, the EC50 [1] is reported as greater than 18 µM and the EC50 [2] is reported as greater than 24 µM.
With `O[C@@H](c1cc(C(F)(F)F)nc2c(C(F)(F)F)cccc12)[C@H]1CCCCN1` [(S,R)-MEFLOQUINE] the Activity [4] was 100%.
Work on `O=C(N[C@H]1CCc2ccccc21)C1CCN(c2ncccc2-c2nc(-c3ccccc3)no2)CC1` yielded an EC50 [1] of 1.11 µM and an EC50 [2] greater than 24 µM.
